Data set [1] in a line: Cytotoxicity against rat RT2 cells expressing wild type p53 protein after 48 hrs by MTT assay. The data set is classed as functional, cell-based. Conditions: RT2, 48 h. For orientation: Tetrazolium assays rely on reduction of a dye to a coloured formazan, in cell work by metabolically active cells.
Data set [2] is described as follows: Toxicity in human RBC membrane assessed as hemolysis after 1 hr by spectrophotometry. In kind it is cell-based, Erythrocyte. Conditions: red blood cells (RBC membrane).
The nature of data set [3]: Cytotoxicity against human T98 cells expressing mutant p53 protein after 48 hrs by MTT assay. In kind it is functional, cell-based. To be noted: T98, 48 h.
For data set [4], the system named is T98. Nature of the data set: Induction of apoptosis in human T98 cells expressing mutant p53 protein assessed as DNA fragmentation at 100 uM after 48 hrs using DAPI staining by UV/fluorescence microscopy. In kind it is functional, cell-based.
For data set [5], the system named is RT2. Nature of the data set: Induction of apoptosis in rat RT2 cells expressing wild type p53 protein assessed as DNA fragmentation at 100 uM after 48 hrs using DAPI staining by UV/fluorescence microscopy. In kind it is functional, cell-based.
Data set [6] concerns T98. In words: Induction of apoptosis in human T98 cells expressing mutant p53 protein assessed as cell membrane morphological changes at 100 uM after 48 hrs by phase contrast microscopy. The data set is classed as functional, cell-based.
In data set [7] the test system is RT2. In words: Induction of apoptosis in rat RT2 cells expressing wild type p53 protein assessed as cell membrane morphological changes at 100 uM after 48 hrs by phase contrast microscopy. The data set is classed as functional, cell-based.

The record followed here is ChEMBL document CHEMBL1158366, “Gallium(III) complexes of 2-pyridineformamide thiosemicarbazones: cytotoxic activity against malignant glioblastoma” (Eur J Med Chem, 2009).

Calls of active or inactive are those of the source. The calls are words filed in the database; no cut-off is given here. Where only a bound is given, the exact number is not on record here.

In general, IC50 refers to the concentration that inhibits the measured activity by half.

On to `CCNC(=S)N/N=C(\N)c1ccccn1`, for which the IC50 is 359 µM in data set [1] and 143 µM in data set [3]. Besides, in data set [2], the IC50 at 1 hr is over 1000 µM.
On to `NC(=S)N/N=C(\N)c1ccccn1`, for which the IC50 in data set [1] came out at 7.28 µM; in data set [3], 3.6 µM. For the same compound, the IC50 at 1 hr in data set [2] was over 1000 µM.
With `CNC(=S)N/N=C(\N)c1ccccn1`, the outcome in data set [4], in data set [5], in data set [6] and in data set [7] was Active. Further, the IC50 stood at 12.2 µM in data set [1] and 32 µM in data set [3]. Moreover, the IC50 at 1 hr in data set [2] is over 1000 µM.
